Here are results for 64 molecules from PubChem BioAssay AID1626 (SRMLSC, 2009).

This test deals with M. tuberculosis H37Rv growth inhibition. Kind of test: M. tuberculosis H37Rv growth inhibitors, H37Rv strain (AID 1626). The following applies: for IC90: measured here: IC90 against H37Rv; for CC50: measured here: Vero cell cytotoxicity.

A value given as a limit tells only on which side of the number the result lay.

In the case of `Cc1ccc(NC(=O)c2nc[nH]c2C(=O)N[C@@H](C)c2ccccc2)cc1`, the IC50 was 2.16 µM, the IC90 came to 6.42 µM and the 50% cytotoxic concentration (CC50) was more than 40 µM.

Regarding `O=C(Nc1ccc(F)c(Cl)c1)Nc1csc2ccccc12`, the half-maximal inhibitory concentration (IC50) was 54.9 µM, the IC90 is more than 100 µM and the CC50 is 7.06 µM.

Consider `CCOc1ccc(N/C(C)=C\C(=O)c2ccc3c(c2)OCCO3)cc1`, for which the half-maximal inhibitory concentration (IC50) is 5.85 µM and the 90% effect concentration (IC90) was more than 100 µM.

Consider `COc1ccc(NC(=O)CCc2nc(-c3ccccc3F)no2)cc1`, for which the 90% effect concentration (IC90) is more than 100 µM.

For `Cc1cccc(OCCCCc2c(C)n[nH]c2C)c1`, the 50% inhibitory concentration (IC50) was 10.9 µM, the IC90 is 15.5 µM and the CC50 is more than 40 µM.

Take `Cc1ccc(/C=C/C(=O)C2C(=O)c3ccccc3C2=O)cc1`: the half-maximal inhibitory concentration (IC50) is 3.39 µM, the IC90 was found to be 5.29 µM and the CC50 was more than 40 µM.

As to `Cc1ccc(-c2nnc3sc(C4COc5ccccc5O4)nn23)cc1` (stereo not drawn), the IC50 was 4.77 µM and the IC90 was more than 100 µM.

`CCCCc1ccc(NC(=O)C2CCCO2)cc1` (stereo not drawn): the half-maximal inhibitory concentration (IC50) is 1.71 µM and the IC90 was more than 100 µM.

Regarding `COc1ccc(-c2nn(-c3ccccc3)cc2/C=N/N=C(N)N)cc1OC`, the IC50 is 13.3 µM, the IC90 turned out to be 22.6 µM and the cytotoxic concentration (CC50) came out at 32.3 µM.

In the case of `O=C(O)/C=C/C(=O)Nc1ccc(-n2nccc2C(F)(F)F)cc1`, the IC90 is more than 100 µM.

As to `Cc1cc(/C=N/n2cnnc2)c(C)n1-c1ccc(OCc2ccc(Cl)cc2Cl)cc1`, the concentration for half-maximal inhibition (IC50) is 8.02 µM, the IC90 was determined as 15 µM and the CC50 was found to be 21.6 µM.

Regarding `O=Cc1ccc(-c2ccc(Cl)cc2Cl)[nH]1`, the IC50 is 8.46 µM and the concentration for an effect of 90% (IC90) was more than 100 µM.

For the molecule `Cc1ccc(-c2cc(C(=O)Nc3nccs3)c3ccccc3n2)c(C)c1`, the IC50 is 9.6 µM, the IC90 is 11.9 µM and the cytotoxic concentration (CC50) was more than 40 µM.

Take `S=c1[nH]c2ccc3ccccc3c2[nH]1`: the IC50 was 23.7 µM, the IC90 was more than 100 µM and the CC50 was more than 40 µM.

For the molecule `Clc1ccc(-n2nnnc2Sc2ncnc3sccc23)cc1`, the IC50 was 63.4 µM, the IC90 was more than 100 µM and the half-maximal cytotoxic concentration (CC50) came to 10.5 µM.

Consider `Cc1cccc(NC(=O)/C=C/c2ccc([N+](=O)[O-])s2)c1`, for which the half-maximal inhibitory concentration (IC50) was less than 0.391 µM, the 90% effect concentration (IC90) is less than 0.391 µM and the CC50 stood at 6.99 µM.

`COc1ccc(NCc2nc3ccccc3n2CCOc2ccc(C)cc2)cc1`: the IC50 was 17.8 µM, the 90% effect concentration (IC90) stood at 26.2 µM and the CC50 is 26.2 µM.

Turning to `COc1ccc2cc(C(=O)C3CCCN(Cc4cccc(C)n4)C3)ccc2c1` (stereo not drawn), the half-maximal inhibitory concentration (IC50) is 7 µM, the IC90 stood at 14.7 µM and the CC50 is more than 40 µM.

As to `Cc1ccc(NC(=O)CSc2ccc(-c3ccccn3)nn2)cc1`, the half-maximal inhibitory concentration (IC50) was 1.98 µM, the concentration for an effect of 90% (IC90) amounted to 2.74 µM and the cytotoxic concentration (CC50) is more than 40 µM.

For `O=C1OC(/C(=C\Nc2cc(Cl)ccc2O)[N+](=O)[O-])c2ccccc21` (stereo not drawn), the half-inhibitory concentration (IC50) was 57.2 µM, the concentration for an effect of 90% (IC90) was more than 100 µM and the CC50 was more than 40 µM.

Take `Nc1c(C(=O)NCc2ccccc2)c2nc3ccccc3nc2n1CCCN1CCOCC1`: the IC50 is 12.7 µM, the IC90 came to 17.1 µM and the half-maximal cytotoxic concentration (CC50) was more than 40 µM.

Regarding `OC(COCC(F)(F)C(F)(F)C(F)(F)C(F)F)Cn1c2ccc(Cl)cc2c2cc(Cl)ccc21` (stereo not drawn), the half-maximal inhibitory concentration (IC50) was 7.11 µM, the IC90 was found to be 9.92 µM and the 50% cytotoxic concentration (CC50) was 13.3 µM.

In the case of `Cc1ccc(N(CCC#N)C(=O)CCl)cc1C`, the half-inhibitory concentration (IC50) is 19.7 µM, the IC90 worked out at 38.4 µM and the cytotoxic concentration (CC50) turned out to be 1.94 µM.

Turning to `O=C(C=C=Nc1ccccc1)C(=O)N=C=Cc1ccccc1`, the IC50 is 16.4 µM, the IC90 is 25 µM and the CC50 was determined as 22.8 µM.

With `O=C(Nc1ccc(Cl)cc1)Nc1csc([N+](=O)[O-])c1`, the half-inhibitory concentration (IC50) is 79.1 µM and the IC90 is more than 100 µM.

As for `CCCNC1=C(N(C(C)=O)c2cccc(F)c2)C(=O)c2ccccc2C1=O`, the IC50 was 2.75 µM, the concentration for an effect of 90% (IC90) amounted to 4.13 µM and the half-maximal cytotoxic concentration (CC50) worked out at 29.9 µM.

Take `CCn1ccnc1CN(C)Cc1cn(-c2cccc(C)c2)nc1-c1cccc(F)c1`: the IC50 is 2.58 µM, the 90% effect concentration (IC90) is 4.19 µM and the CC50 was more than 40 µM.

For `CCOC(=O)c1ccc(NC(=O)/C=C/c2cccs2)cc1`, the IC50 is 71.3 µM and the IC90 was more than 100 µM.

For the molecule `CCC(C)NC(=O)c1c(N)n(/N=C/c2ccccn2)c2nc3ccccc3nc12` (stereo not drawn), the IC50 was 5.18 µM, the IC90 stood at 7.46 µM and the cytotoxic concentration (CC50) is more than 40 µM.

`C(=C\c1nc(N2CCCC2)c2ccccc2n1)/c1ccccc1`: the IC50 is 5.33 µM, the 90% effect concentration (IC90) came out at 7.91 µM and the CC50 was more than 40 µM.

For the molecule `COc1ccccc1/C=C/CN1CCCC(CO)(Cc2cccc(Cl)c2)C1` (stereo not drawn), the 50% inhibitory concentration (IC50) was 10.9 µM, the IC90 amounted to 16.4 µM and the CC50 was more than 40 µM.

Consider `CCCCOC(=O)Nc1ccc(C)c(Cl)c1`, for which the IC90 is more than 100 µM.

With `Nc1c(C(=O)NC2CCCCC2)nsc1C(=O)OCC(=O)NC1CCCCC1`, the IC50 is 2.04 µM, the 90% effect concentration (IC90) is more than 100 µM and the cytotoxic concentration (CC50) is more than 40 µM.

Regarding `CC1(c2ccccc2)CC(C)(C)N(C(=O)c2cc([N+](=O)[O-])cc([N+](=O)[O-])c2)c2ccccc21` (stereo not drawn), the IC50 was 13.4 µM, the IC90 is 54.5 µM and the CC50 was more than 40 µM.

With `CCOC(=O)c1ccccc1-n1c(C)cc(C2N=C(N)Nc3nc4ccccc4n32)c1C` (stereo not drawn), the IC50 was 11.5 µM and the concentration for an effect of 90% (IC90) came out at 13.7 µM.

Take `O=C(Nc1ncc(Cc2ccccc2)s1)c1cccs1`: the IC50 is 49 µM, the IC90 was more than 100 µM and the 50% cytotoxic concentration (CC50) was more than 40 µM.

Take `O=C(C[n+]1cc(-c2ccc(Cl)cc2)n2c1CCC2)N1c2ccccc2Sc2ccccc21`: the half-maximal inhibitory concentration (IC50) was 12.1 µM and the IC90 amounted to 13.7 µM.

Take `Cc1cc(C)c2nc(/N=C(\N)NC(=O)Nc3ccccc3)nc(C)c2c1`: the IC50 is 4.02 µM, the IC90 was 5.93 µM and the CC50 was more than 40 µM.

`FC(F)(F)c1cccc(Sc2nc(-c3ccccc3)nnc2C(F)(F)F)c1`: the IC50 is 7.32 µM, the IC90 was more than 100 µM and the CC50 is more than 40 µM.

In the case of `Nc1ncnc2c1ccn2[C@@H]1O[C@H](CO)[C@@H](O)[C@H]1O`, the IC50 is 2.44 µM, the concentration for an effect of 90% (IC90) came to 3.87 µM and the CC50 was determined as 0.131 µM.

Take `CN(C)CCCn1c(SCC(=O)Nc2nc(-c3cccc(Br)c3)cs2)nc2ccccc2c1=O`: the IC50 was 5.61 µM, the IC90 came out at 5.96 µM and the cytotoxic concentration (CC50) was 8.6 µM.

In the case of `CCOC(=O)COc1ccc2c(=O)c(-c3ccc(OC)c(OC)c3)c(C(=O)OCC)oc2c1`, the half-inhibitory concentration (IC50) was 2.51 µM and the concentration for an effect of 90% (IC90) turned out to be 5.68 µM.

As to `CCOc1ccc(N=CC2=C(O)CC(c3ccco3)CC2=O)cc1` (stereo not drawn), the IC50 is 5.31 µM and the IC90 is more than 100 µM.

As for `Cc1nccc(-c2ccc(-n3c(C)ccc3C)cc2)n1`, the 90% effect concentration (IC90) was more than 100 µM and the CC50 is more than 40 µM.

Regarding `CCOC(=O)c1c(NC(=O)COc2ccccc2)sc2c1CC(C)(C)NC2(C)C`, the 50% inhibitory concentration (IC50) was 20.1 µM, the 90% effect concentration (IC90) was found to be 26.8 µM and the CC50 was more than 40 µM.

`COc1ccc(N/C=C/C(=O)c2ccc(Cl)cc2)cc1` showed a CC50 of more than 40 µM.

As for `C=CCOC(=O)C(C#N)c1nc2ccccc2nc1N1CCN(Cc2ccc3c(c2)OCO3)CC1` (stereo not drawn), the half-inhibitory concentration (IC50) is 5.44 µM, the IC90 is 6.17 µM and the CC50 was more than 40 µM.

Take `CCCCCc1cc(=O)oc2c(C(CCN3CCCC(C)C3)c3ccc(N(C)C)cc3)c(OC)cc(OC)c12` (stereo not drawn): the IC50 was 5.6 µM, the IC90 is 6.31 µM and the CC50 is 16.5 µM.

`CCCn1c(NC(=O)c2ccc(Br)cc2)nc2ccccc21`: the half-maximal inhibitory concentration (IC50) was 17.2 µM, the IC90 was more than 100 µM and the 50% cytotoxic concentration (CC50) was more than 40 µM.

`CCOc1ccc(NC(=O)CCN2CCN(c3ccccc3)CC2)cc1` displayed an IC90 of more than 100 µM.

On to `CCCCc1ccc(NC=C2C(=O)OC3(CCCCC3)OC2=O)cc1`, for which the IC50 was 6.18 µM and the 90% effect concentration (IC90) was more than 100 µM.

Take `CCOC(=O)c1ccc(N2CSC3=C(C#N)C(c4cccs4)CC(=O)N3C2)cc1` (stereo not drawn): the concentration for half-maximal inhibition (IC50) was 30.5 µM and the IC90 was more than 100 µM.

In turn, `CCOC(=O)CSc1cccc2cccnc12` came in with a half-maximal cytotoxic concentration (CC50) of 30.7 µM.

Take `COc1ccc(-c2nnc(SC(C(=O)c3c[nH]c4ccccc34)c3ccccc3)n2N)cc1OC` (stereo not drawn): the IC90 was more than 100 µM and the cytotoxic concentration (CC50) is more than 40 µM.

As to `CCCNC(=O)CSc1nnc(-c2ccc(F)cc2)o1`, the IC50 is 5.88 µM and the 90% effect concentration (IC90) is more than 100 µM.

As to `CN(C)CCNc1nc2sc3c(c2c(=O)n1CCc1ccccc1)CCCCC3`, the IC50 is 8.57 µM, the IC90 came out at 11.1 µM and the CC50 was determined as 12 µM.

As to `O=[N+]([O-])c1cc(Cl)c(O)c2ncccc12`, the half-maximal inhibitory concentration (IC50) was 16.3 µM, the IC90 was determined as 24.7 µM and the CC50 worked out at 21.7 µM.

With `CCN1CCN(c2cc(C(C)(C)C)nc3c(-c4ccccc4)c(C)nn23)CC1`, the IC50 was 3.6 µM, the concentration for an effect of 90% (IC90) was found to be 5.63 µM and the CC50 stood at 30.6 µM.

`N#Cc1nc(-c2cccs2)oc1NCCc1ccccc1`: the concentration for half-maximal inhibition (IC50) was 1.97 µM and the IC90 was found to be 5.43 µM.

As for `CC(C)Cn1c(N2CCN(C(=O)/C=C/c3ccccc3)CC2)nc2ccccc21`, the IC50 is 21.5 µM and the IC90 is 29.9 µM.

For the molecule `Cn1c(O)c(C(=Nc2ccccc2)SCc2ccc(Cl)cc2)c(=O)n(C)c1=O`, the half-inhibitory concentration (IC50) was 5.61 µM, the IC90 was 6.41 µM and the CC50 was found to be 21.2 µM.

In the case of `O=C1C=C(Nc2ccccc2O)c2ccccc2C1=O`, the IC50 was 23.3 µM, the IC90 is 26.6 µM and the CC50 was determined as 13.3 µM.

With `N#Cc1ccc(-c2ccccc2)nc1SCC(=O)c1cc2ccccc2oc1=O`, the half-maximal inhibitory concentration (IC50) was 1.64 µM, the IC90 worked out at 2.16 µM and the 50% cytotoxic concentration (CC50) was more than 40 µM.

For `CN1CCN(c2ccccc2NC(=O)c2ccc(-c3ccc(Cl)cc3Cl)o2)CC1`, the IC50 is 65.2 µM, the 90% effect concentration (IC90) is 82.8 µM and the CC50 was more than 40 µM.

One may read the IC50 as the concentration needed to halve the response being measured. As a reminder, the IC90 is the concentration at which the effect reaches the 90% level. By CC50 is commonly meant the concentration that lowers cell viability or growth by half. Read a low CC50 as harm at low concentration.
